The source of these data is US20250215032A1, “PHOSPHORYLPURINONE COMPOUNDS FOR THE TREATMENT OF CANCER” (Hoffmann-La Roche Inc., priority 2022, published 2025).

Structures are written as SMILES. In brackets after ≈: the same amount, converted by molar mass. Where two headings read alike, the source gives them in different places.

The nature of data set [1]: Lyophilisation solubility assay (LYSA), kinetic solubility. The format is physicochemical. As to conditions: aqueous buffer; 0.05 M phosphate buffer (pH 6.5), from 10 mM DMSO stock after evaporation. An excerpt: The solubility of a substance can be broadly defined as the maximum amount of the substance that dissolves in a specified volume of solvent. However, it is important to understand that the solubility of a compound can vary drastically depending on the condition of the solvent (e.g. temperature and pH) and the physiochemical properties of the compound (e.g. ionisation and crystallinity). These critical factors need to be considered during solubility determination in order to generate high quality solubility data that will be useful in the progression of compounds through the discovery and development stages. The kinetic solubility of a compound is the maximum solubility of the fastest precipitating species of the compound; this is often measured using a stock solution of the compound dissolved in an organic solvent, typically dimethyl sulfoxide (DMSO), as the starting material. […] The precipitate formed, which is rarely determined during the assessment, could be any combination of various possible solid states of the compound. Given the level of supersaturation that could occur when an organic solvent is diluted in water, kinetic solubility values are typically higher than the corresponding thermodynamic (equilibrium) solubility values. Solubility assays in the early discovery process often determine kinetic solubility. The lyophilisation solubility assay (LYSA) is a high throughput kinetic solubility assay for the early drug discovery process.
Samples were prepared in duplicate from 10 mM DMSO stock solution. After evaporation of DMSO with a centrifugal vacuum evaporator, the compounds were solved in 0.05 M phosphate buffer (pH 6.5), stirred for one hour and shaken for two hours. After one night, the solutions were filtered using a microtiter filter plate. Then the filtrate and its 1/10 dilution were analyzed by HPLC-UV. […] The results were in μg/mL. […] It should be noted that metastable solid phases may form during the evaporation step, and the method might therefore produce higher solubility values than assays using the stable polymorph as the starting material.

A short description of data set [2]: Dissolution test in fed state simulated intestinal fluid (FeSSIF). The following applies: FeSSIF pH 5, room temperature. It counts as physicochemical. On the procedure:
4.040 g of NaOH (pellets), 8.650 g of glacial acetic acid and 11.874 g of NaCl were dissolved in about 0.9 L of purified water. The pH was adjusted to 5 with either 1 N NaOH or 1 N HCl. The total volume of the mixture was made up to 1.0 L with purified water at room temperature.
To about 50 mL of blank FeSSIF buffer was added 1.120 g of SIF Powder Original (Biorelevant.com Ltd, Product code: FFF03, UK), the mixture was stirred until powder was completely dissolved. The total volume of the mixture was made up to 100 mL with blank FeSSIF buffer at room temperature.
(§1) Approximately 1-2 mg of each compound was added in excess into […] of buffer at room temperature. Each sample is placed in a microanalysis glass tube, which was sonicated for 1 h and agitated for 2 h. All suspensions were left overnight (about 16 h). On the next day, all pH values were measured with a pH-meter and the samples were filtered into a V-bottom plate with a micronic filterplate to separate the solid material from the solution. Then, all solutions were diluted into 96 well V-bottom microplates and analyzed by UPLC-UV.
(§2) The calibration line was established by UPLC using 5 different dilutions of the compound in a DMSO stock solution, made in micronic tubes (concentration approximately 1 mg/mL). Dilutions took place with DMSO (in special circumstances, with acetonitrile, or 80% HCl 0.1 N/20% acetonitrile). From this regression equation the solubility of the compound was determined. In cases where the compound was completely dissolved in the buffer, the value for equilibrium solubility was assumed to be higher than the value determined by UPLC and reported as such.

The nature of data set [3]: Thermodynamic solubility assay (THESA), equilibrium solubility. The format is physicochemical. The following applies: 22 °C, aqueous buffer, thermodynamic from solid; 50 mM phosphate buffer (pH 6.5), room temperature (22±2° C.). On the procedure:
The thermodynamic (equilibrium) solubility is the saturation solubility of a compound at the end of the dissolution process, where the dissolved compound is in equilibrium with the undissolved material in excess. The thermodynamic solubility is determined by dispensing a solid compound into a solvent. This is often deemed as the true solubility of the compound and is a critical piece of information in formulation development. The thermodynamic solubility assay (THESA) is a widely used tool for the measurement of equilibrium solubility for the later drug discovery process and is considered as a gold standard solubility assay.
Approximately 1-2 mg of each compound was added into 300 μL of 50 mM phosphate buffer (pH 6.5) at room temperature (22±2° C.). Each sample is placed in a microanalysis tube, which was sonicated for 1 h and shaken for 2 h. All suspensions were left overnight (about 16 h). On the next day, the samples were filtered into a V-bottom plate with a micronic filterplate to separate the solid material from the solution. Then, all solutions were diluted into 96 well V-bottom microplates and analyzed by UPLC-UV. The calibration line was established by UPLC using 5 different dilutions of the compound in a DMSO stock solution, made in micronic tubes (concentration approximately 1 mg/mL). Dilutions took place with DMSO. From this regression equation the solubility of the compound was determined. In cases where the drug was completely dissolved in the buffer, the value for equilibrium solubility was assumed to be higher than the value determined by UPLC and reported as such.

Data set [4] can be described thus: Dissolution test in fasted state simulated intestinal fluid (FaSSIF). The format is physicochemical. As to conditions: FaSSIF pH 6.5, room temperature. The method, then:
0.420 g of NaOH (pellets), 3.954 g of NaH2PO4 (monohydrate) and 6.186 g of NaCl were dissolved in about 0.9 L of purified water. The pH was adjusted to 6.5 with either 1 N NaOH or 1 N HCl. The total volume of the mixture was made up to 1.0 L with purified water at room temperature.
To about 50 mL of blank FaSSIF buffer was added 0.2240 g of SIF Powder Original (Biorelevant.com Ltd, Product code: FFF03, UK), the mixture was stirred until powder was completely dissolved. The total volume of the mixture was made up to 100 mL with blank FaSSIF buffer at room temperature.
as §1, §2

The next data set has as its target T1, human TLR7 (Homo sapiens, UniProt Q9NYK1).
T1 sequence (Q9NYK1 27-1049): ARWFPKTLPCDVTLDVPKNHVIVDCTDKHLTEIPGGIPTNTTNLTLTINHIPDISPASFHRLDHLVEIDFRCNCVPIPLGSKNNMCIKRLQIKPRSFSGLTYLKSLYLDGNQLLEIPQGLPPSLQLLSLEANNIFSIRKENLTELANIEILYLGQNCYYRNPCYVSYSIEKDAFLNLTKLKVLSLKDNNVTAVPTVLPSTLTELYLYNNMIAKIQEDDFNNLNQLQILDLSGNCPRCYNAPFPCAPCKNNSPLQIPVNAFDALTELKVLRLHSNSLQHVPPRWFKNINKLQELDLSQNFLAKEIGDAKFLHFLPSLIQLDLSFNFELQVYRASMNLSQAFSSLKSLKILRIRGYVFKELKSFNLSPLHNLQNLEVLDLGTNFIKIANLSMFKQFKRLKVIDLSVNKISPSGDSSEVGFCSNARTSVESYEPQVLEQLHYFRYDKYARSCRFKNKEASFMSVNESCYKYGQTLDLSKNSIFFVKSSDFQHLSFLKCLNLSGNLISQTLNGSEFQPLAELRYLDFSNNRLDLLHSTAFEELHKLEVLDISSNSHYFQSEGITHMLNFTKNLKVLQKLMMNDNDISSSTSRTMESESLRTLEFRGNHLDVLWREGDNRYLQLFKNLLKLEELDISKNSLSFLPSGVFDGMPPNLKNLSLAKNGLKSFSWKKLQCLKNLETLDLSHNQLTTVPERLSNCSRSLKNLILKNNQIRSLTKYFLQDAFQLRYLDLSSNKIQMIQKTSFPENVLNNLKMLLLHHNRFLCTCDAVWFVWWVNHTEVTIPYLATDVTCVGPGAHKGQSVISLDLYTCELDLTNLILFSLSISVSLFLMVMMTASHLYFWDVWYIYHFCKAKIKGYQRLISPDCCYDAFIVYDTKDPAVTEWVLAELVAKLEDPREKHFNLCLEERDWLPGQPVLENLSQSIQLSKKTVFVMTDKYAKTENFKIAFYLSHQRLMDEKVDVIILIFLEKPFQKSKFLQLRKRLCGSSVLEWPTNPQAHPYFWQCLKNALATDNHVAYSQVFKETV
Put plainly: HEK293-Blue-hTLR7 cells assay (SEAP reporter, NF-κB activation).

Excerpt for human TLR7: A stable HEK293-Blue-h TLR7 cell line was purchased from InvivoGen (Cat. #: hkb-htlr7, San Diego, California, USA). These cells were designed for studying the stimulation of human TLR7 by monitoring the activation of NF-κB. A SEAP (secreted embryonic alkaline phosphatase) reporter gene was placed under the control of the IFN-β minimal promoter fused to five NF-κB and AP-1-binding sites. The SEAP was induced by activating NF-κB and AP-1 via stimulating HEK-Blue hTLR7 cells with TLR7 ligands. Therefore the reporter expression was regulated by the NF-κB promoter upon stimulation of human TLR7 for 20 hrs. The cell culture supernatant SEAP reporter activity was determined using QUANTI-Blue™ kit (Cat. #: rep-qb1, Invivogen, San Diego, Ca, USA) at a wavelength of 640 nm, a detection medium that turns purple or blue in the presence of alkaline phosphatase.
HEK293-Blue-hTLR7 cells were incubated at a density of 250,000˜450,000 cells/mL in a volume of 180 μL in a 96-well plate in Dulbecco's Modified Eagle's medium (DMEM) containing 4.5 g/L glucose, 50 U/mL penicillin, 50 mg/mL streptomycin, 100 mg/mL Normocin, 2 mM L-glutamine, 10% (V/V) heat-inactivated fetal bovine serum for 24 hrs. Then the HEK293-Blue-hTLR7 cells were incubated with addition of 20 μL test compound in a serial dilution in the presence of final DMSO at 1% and perform incubation under 37° C. in a CO2 incubator for 20 hrs.

Usually solubility (kinetic) stands for the concentration staying in solution when a stock, usually in DMSO, is diluted into the medium. In general, solubility (thermodynamic) refers to the concentration in solution at equilibrium with solid. By EC50 is commonly meant the midpoint of the concentration-response curve. On to `CC[P@@](C)(=O)c1nc(N)c2[nH]c(=O)n(Cc3ccc(NCCN(C)C)nc3)c2n1` [Example 15-A, 6-amino-9-[[6-[2-(dimethylamino)ethylamino]-3-pyridyl]methyl]-2-[(R)-ethyl(methyl)phosphoryl]-7H-purin-8-one], for which, in data set [1], the kinetic solubility was more than 0.56 mg/mL. Also, the “FeSSIF” value in data set [2] was 3987 µg/mL. Besides, in data set [3], the solubility (thermodynamic) came out at 4.06 mg/mL (≈ 9.7 mM). The “FaSSIF” value in data set [4] was 3074 µg/mL. At human TLR7, this compound yielded an EC50 of 0.018 µM.

As to `CCC[P@@](C)(=O)c1nc(N)c2[nH]c(=O)n(Cc3ccc(NCCN(C)C)nc3)c2n1` [Example 18-B, 6-amino-9-[[6-[2-(dimethylamino)ethylamino]-3-pyridyl]methyl]-2-[(R)-methyl(propyl)phosphoryl]-7H-purin-8-one], the kinetic solubility in data set [1] was more than 0.58 mg/mL. Further, the “FeSSIF” value in data set [2] was more than 5000 µg/mL. For the same compound, the thermodynamic solubility in data set [3] amounted to 4.02 mg/mL (≈ 9.3 mM). Besides, the “FaSSIF” value in data set [4] is more than 3767 µg/mL.

Consider `CC[P@](C)(=O)c1nc(N)c2[nH]c(=O)n(Cc3ccc(OCCN(C)C)nc3)c2n1` [Example 16-B, 6-amino-9-[[6-[2-(dimethylamino)ethoxy]-3-pyridyl]methyl]-2-[(S)-ethyl(methyl)phosphoryl]-7H-purin-8-one], for which the solubility (kinetic) in data set [1] is more than 0.56 mg/mL. Further, the “FeSSIF” value in data set [2] is 1464 µg/mL. The compound further had a thermodynamic solubility in data set [3] of 3.45 mg/mL (≈ 8.23 mM). For the same compound, the “FaSSIF” value in data set [4] is 784 µg/mL.

For the compound `CC[P@@](C)(=O)c1nc(N)c2[nH]c(=O)n(Cc3ccc(N4CCN(C)CC4)nc3)c2n1` [Example 13-A, 6-amino-2-[(R)-ethyl(methyl)phosphoryl]-9-[[6-(4-methylpiperazin-1-yl)-3-pyridyl]methyl]-7H-purin-8-one], the solubility (kinetic) in data set [1] is more than 0.53 mg/mL. The “FeSSIF” value in data set [2] was 4672 µg/mL. Also, the thermodynamic solubility in data set [3] was determined as 2.38 mg/mL (≈ 5.53 mM). Besides, the “FaSSIF” value in data set [4] was 2368 µg/mL.

Regarding `CCCS(=N)(=O)c1nc(N)c2[nH]c(=O)n(Cc3ccc(Cl)nc3)c2n1` (stereo not drawn) [RO14, reference compound], the solubility (kinetic) in data set [1] was 0.069 mg/mL. Further, the “FeSSIF” value in data set [2] is 21 µg/mL. The thermodynamic solubility in data set [3] stood at 0.033 mg/mL (≈ 0.0864 mM). The “FaSSIF” value in data set [4] is 14 µg/mL. In addition, on human TLR7 (read-out: HEK293-Blue-h TLR7 (EC50 (μM)), HEK293-Blue-hTLR7 cells, 20 hrs incubation, SEAP reporter), the EC50 was found to be 0.017 µM.

Turning to `CN(C)CCOc1ccc(Cn2c(=O)[nH]c3c(N)nc(P(C)(C)=O)nc32)cn1` [Example 2, 6-amino-9-[[6-[2-(dimethylamino)ethoxy]-3-pyridyl]methyl]-2-dimethylphosphoryl-7H-purin-8-one], the kinetic solubility in data set [1] was more than 0.54 mg/mL. In addition, in data set [2], the “FeSSIF” value was 4801 µg/mL. The compound further showed a solubility (thermodynamic) in data set [3] of 2.78 mg/mL (≈ 6.85 mM). Further, the “FaSSIF” value in data set [4] is 3519 µg/mL. On human TLR7, this compound showed an EC50 of 0.019 µM.

`CCC[P@](C)(=O)c1nc(N)c2[nH]c(=O)n(Cc3ccc(NCCN(C)C)nc3)c2n1` [Example 18-A, 6-amino-9-[[6-[2-(dimethylamino)ethylamino]-3-pyridyl]methyl]-2-[(S)-methyl(propyl)phosphoryl]-7H-purin-8-one]: the solubility (kinetic) in data set [1] is more than 0.58 mg/mL. For the same compound, in data set [2], the “FeSSIF” value was 4536 µg/mL. Besides, the solubility (thermodynamic) in data set [3] worked out at 3 mg/mL (≈ 6.94 mM). In data set [4], the “FaSSIF” value is 3436 µg/mL.

As to `CN(C)CCNc1ccc(Cn2c(=O)[nH]c3c(N)nc(P(C)(C)=O)nc32)cn1` [Example 1, 6-amino-9-[[6-[2-(dimethylamino)ethylamino]-3-pyridyl]methyl]-2-dimethylphosphoryl-7H-purin-8-one], the solubility (kinetic) in data set [1] was more than 0.54 mg/mL. For the same compound, in data set [2], the “FeSSIF” value was 3077 µg/mL. The compound also gave a solubility (thermodynamic) in data set [3] of 0.929 mg/mL (≈ 2.3 mM). Further, in data set [4], the “FaSSIF” value was 2527 µg/mL. Besides, the EC50 at human TLR7 came to 0.034 µM.

Take `CC[P@](C)(=O)c1nc(N)c2[nH]c(=O)n(Cc3ccc(NCCN(C)C)nc3)c2n1` [Example 15-B, 6-amino-9-[[6-[2-(dimethylamino)ethylamino]-3-pyridyl]methyl]-2-[(S)-ethyl(methyl)phosphoryl]-7H-purin-8-one]: in data set [1], the kinetic solubility was more than 0.56 mg/mL. Moreover, in data set [2], the “FeSSIF” value was more than 4267 µg/mL. Besides, the solubility (thermodynamic) in data set [3] was more than 4.97 mg/mL. Moreover, the “FaSSIF” value in data set [4] is more than 3733 µg/mL. At human TLR7, this compound had an EC50 of 0.012 µM.

Regarding `CC[P@@](C)(=O)c1nc(N)c2[nH]c(=O)n(Cc3ccc(OCCN(C)C)nc3)c2n1` [Example 16-A, 6-amino-9-[[6-[2-(dimethylamino)ethoxy]-3-pyridyl]methyl]-2-[(R)-ethyl(methyl)phosphoryl]-7H-purin-8-one], in data set [1], the solubility (kinetic) was more than 0.56 mg/mL. Moreover, the “FeSSIF” value in data set [2] was 2371 µg/mL. In data set [3], the solubility (thermodynamic) came out at 1.9 mg/mL (≈ 4.53 mM). The “FaSSIF” value in data set [4] is 1799 µg/mL.
